The supplement of paper PMC10307832

How the values were obtained:
Assay in all cases: relative viability (nuclei count vs DMSO), 5 days (fraction); higher = more cells survive
[1] = tested on: LCLC-97TM1
Summary of the method: (§1)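 Relative viability was taken as the ratio of nuclei in treated wells to nuclei in vehicle wells. Lung cancer cell lines in 1536-well plates received compounds by pin tool one day after seeding, either one drug alone or a fixed anchor-drug dose plus five library-drug doses (not always all listed) in √10 steps. Nuclei were counted on 4× images after 5 days of treatment, and values are medians of duplicate plates.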

[2] = tested on: NCI-H661
Summary of the method: as §1

[3] = tested on: NCI-H1651
Summary of the method: as §1

[4] = tested on: NCI-H650
Summary of the method: as §1

[5] = tested on: NCI-H358
Summary of the method: as §1

[6] = tested on: NCI-H2087
Summary of the method: as §1

[7] = tested on: NCI-H2342
Summary of the method: as §1

[8] = tested on: SK-MES-1
Summary of the method: as §1

[9] = tested on: NCI-H596
Summary of the method: as §1

[10] = tested on: PC-3 [JPC-3]
Summary of the method: as §1

[11] = tested on: NCI-H1355
Summary of the method: as §1

## CC(=O)O[C@@]12CO[C@@H]1C[C@H](O)[C@@]1(C)C(=O)[C@H](O)C3=C(C)[C@@H](OC(=O)[C@H](O)[C@@H](NC(=O)OC(C)(C)C)c4ccccc4)C[C@@](O)([C@@H](OC(=O)c4ccccc4)[C@H]21)C3(C)C [Docetaxel] + COc1cccc2cc(-c3nc([C@H]4CC[C@H](C(=O)O)CC4)n4ncnc(N)c34)[nH]c12 [OSI-027] (partner 0.5 µM)
[1]; first compound 0.0002 µM
  relative viability: 0.696
[1]; first compound 0.000632 µM
  relative viability: 0.603
[1]; first compound 0.002 µM
  relative viability: 0.352
[1]; first compound 0.006325 µM
  relative viability: 0.182
[1]; first compound 0.02 µM
  relative viability: 0.118
[2]; first compound 0.0002 µM
  relative viability: 0.694
[2]; first compound 0.000632 µM
  relative viability: 0.727
[2]; first compound 0.002 µM
  relative viability: 0.521
[2]; first compound 0.006325 µM
  relative viability: 0.29
[2]; first compound 0.02 µM
  relative viability: 0.307
[3]; first compound 0.0002 µM
  relative viability: 0.627
[3]; first compound 0.000632 µM
  relative viability: 0.783
[3]; first compound 0.002 µM
  relative viability: 0.38
[3]; first compound 0.006325 µM
  relative viability: 0.14
[3]; first compound 0.02 µM
  relative viability: 0.0753
[4]; first compound 0.0002 µM
  relative viability: 0.436
[4]; first compound 0.000632 µM
  relative viability: 0.375
[4]; first compound 0.002 µM
  relative viability: 0.266
[4]; first compound 0.006325 µM
  relative viability: 0.265
[4]; first compound 0.02 µM
  relative viability: 0.181
[5]; first compound 0.0002 µM
  relative viability: 0.738
[5]; first compound 0.000632 µM
  relative viability: 0.23
[5]; first compound 0.006325 µM
  relative viability: 0.0795
[5]; first compound 0.02 µM
  relative viability: 0.0599
[6]; first compound 0.0002 µM
  relative viability: 0.464
[6]; first compound 0.000632 µM
  relative viability: 0.359
[6]; first compound 0.002 µM
  relative viability: 0.142
[6]; first compound 0.006325 µM
  relative viability: 0.113
[6]; first compound 0.02 µM
  relative viability: 0.111
[7]; first compound 0.0002 µM
  relative viability: 0.592
[7]; first compound 0.000632 µM
  relative viability: 0.609
[7]; first compound 0.002 µM
  relative viability: 0.502
[7]; first compound 0.006325 µM
  relative viability: 0.46
[7]; first compound 0.02 µM
  relative viability: 0.423
[8]; first compound 0.0002 µM
  relative viability: 0.621
[8]; first compound 0.000632 µM
  relative viability: 0.506
[8]; first compound 0.002 µM
  relative viability: 0.276
[8]; first compound 0.006325 µM
  relative viability: 0.22
[8]; first compound 0.02 µM
  relative viability: 0.112
[9]; first compound 0.0002 µM
  relative viability: 0.805
[9]; first compound 0.000632 µM
  relative viability: 0.767
[9]; first compound 0.002 µM
  relative viability: 0.505
[9]; first compound 0.006325 µM
  relative viability: 0.372
[9]; first compound 0.02 µM
  relative viability: 0.241
[10]; first compound 0.0002 µM
  relative viability: 0.703
[10]; first compound 0.000632 µM
  relative viability: 0.79
[10]; first compound 0.002 µM
  relative viability: 0.441
[10]; first compound 0.02 µM
  relative viability: 0.15
[11]; first compound 0.0002 µM
  relative viability: 0.431
[11]; first compound 0.000632 µM
  relative viability: 0.386
[11]; first compound 0.002 µM
  relative viability: 0.252
[11]; first compound 0.006325 µM
  relative viability: 0.275
